US20190134005A1 (BioMarin Pharmaceutical Inc., priority 2016, published 2019)

Key:
[1] = target: T1, human CGT (Homo sapiens, UniProt Q16880); assay: CGT Enzyme Assay (Biological Example 2, RapidFire/MS/MS method with 0.01% Tween 80 added); format: biochemical; conditions: enzymatic assay, CHO/CGT lysate
T1 sequence (Q16880 21-541): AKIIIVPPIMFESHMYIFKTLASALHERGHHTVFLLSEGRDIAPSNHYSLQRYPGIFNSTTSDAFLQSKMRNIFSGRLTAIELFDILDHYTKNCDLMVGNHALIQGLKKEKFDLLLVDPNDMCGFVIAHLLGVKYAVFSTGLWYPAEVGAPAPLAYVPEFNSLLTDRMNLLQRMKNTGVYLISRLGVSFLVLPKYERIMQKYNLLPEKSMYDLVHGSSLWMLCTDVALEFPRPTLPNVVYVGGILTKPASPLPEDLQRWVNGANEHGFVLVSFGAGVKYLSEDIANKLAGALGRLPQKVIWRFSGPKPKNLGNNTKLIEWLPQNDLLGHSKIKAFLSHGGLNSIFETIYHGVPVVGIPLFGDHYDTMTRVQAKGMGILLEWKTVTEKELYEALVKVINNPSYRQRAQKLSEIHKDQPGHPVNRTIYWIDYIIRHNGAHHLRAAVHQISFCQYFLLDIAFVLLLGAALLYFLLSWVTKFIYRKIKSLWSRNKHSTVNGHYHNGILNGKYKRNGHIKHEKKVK
Experimental: Full-length human CGT cDNA was cloned into the BamH1/Xho1 site of pcDNA3.1 (+) mammalian expression vector (V90-20, Invitrogen, Carlsbad, Calif.) and the plasmid was transfected into Chinese hamster ovary (CHO) cells. Lysate was prepared using M-PER (Mammalian Protein Extraction Reagent, ThermoFisher Scientific, Grand Island, N.Y.) in the presence of a protease inhibitor cocktail (P8340, Sigma, Saint Louis, Mo.). Each 100 mm dish (100% confluent, approximately 1×10^7 cells) was lysed with 250 μL of M-PER containing protease inhibitors. Protein concentration was determined using a Pierce BCA protein assay kit (ThermoFisher Scientific). […] The final concentration of DMSO was 0.5% in both compound-treated and mock-treated samples. Each individual reaction was diluted with 80 μL of methanol:acetronitrile (1:3) containing 5 μM N-docdecanoyl-NBD-galactosylceramide (internal standard) to stop the reaction. 200 μL H2O:acetonitile (1:1) was added to precipitate the protein. After sufficient mixing, the plates were centrifuged at 2469 g for 38 minutes, 200 μl of supernatant was transferred to a LC-MS 96-deep well plate and a second spin was performed at 2469 g for 10 minutes. The final supernatant was injected in triplicate for RapidFire/MS/MS analysis.
The quantitative analysis of C6-NBD-dihydro-ceramide and C6-NBD-dihydro-galactosylceramide was performed on a Rapid Fire 360 high-throughput mass spectrometry system (Agilent Technologies, Palo Alto, Calif.) coupled with a API4000^+ triple quadrupole mass spectrometer (Applied Biosystems, Concord, Ontario, Canada). RapidFire software packages, including RapidFire Control panel, RapidFire UI and RapidFire Integrator (Agilent Technologies), were used to control the RapidFire instrument and to process data. Analyst 1.6.2 software packages (Applied Biosystems) were used to control the MS system and acquire MS data. 10 μL of sample was loaded on a micro-scale C4 solid-phase extraction (SPE) cartridge (Agilent Technologies) and salts were removed using water supplemented with 0.1% formic acid at the flow rate of 1.5 mL/min for 3 sec. C6-NBD-dihydro-ceramide and C6-NBD-dihydro-galactosylceramide were co-eluted into the mass spectrometer using acetonitrile containing 0.1% formic acid at the flow rate of 1.0 mL/min for 3 sec. The total cycle time of one injection was 8 secs. The MS/MS detection was performed in ESI negative mode.
The C6-NBD-dihydro-galactosylceramide reading was normalized first by dividing the peak area of C6-NBD-dihydro-galactosylceramide by the peak area of the internal standard, N-docdecanoyl-NBD-galactosylceramide.

[2] = target: T1, human CGT; assay: Assay 1: CGT Enzymatic Assay (RapidFire/MS/MS, 0.01% Tween 80); format: biochemical; conditions: Table 1, Compounds of Formula (I) and Formula (II), CGT enzymatic assay, read-out: IC50
[3] = C6-NBD-dihydro-galactosylceramide readout

`Cc1cccc(C2C(C)N(c3ccc(Cl)cc3)C(=O)N2c2ccc(Cl)cc2)c1` (centres unmarked) [Example 3] gave an IC50 [1] of 30 to 100 µM.

`Cc1ccc(N2C(=O)N(c3ccc(C)cc3)C(C)(C)[C@@H]2c2cccc(OC(F)(F)F)c2)cc1` [Example 21-2, (S)-4,4-dimethyl-1,3-di-p-tolyl-5-(3-(trifluoromethoxy)phenyl)imidazolidin-2-one] was tested, and the IC50 [1] was < 1 µM.

`N#Cc1ccc(N2C(=O)N(c3ccc(Cl)cc3)C3(COC3)[C@H]2c2cccc(OC(F)(F)F)c2)cc1` [Example 47-1, (R)-4-(5-(4-chlorophenyl)-6-oxo-8-(3-(trifluoromethoxy)phenyl)-2-oxa-5,7-diazaspiro[3.4]octan-7-yl)benzonitrile] was tested, and the IC50 [1] was 10 to 30 µM.

In the case of `CCC[C@]1(C)[C@@H](c2cccc(OC(F)(F)F)c2)N(c2ccc(C#N)cc2)C(=O)N1c1ccc(C#N)cc1` [Example 52-3, 4,4′-((4R,5R)-4-methyl-2-oxo-4-propyl-5-(3-(trifluoromethoxy)phenyl)imidazolidine-1,3-diyl)dibenzonitrile], the IC50 [1] is reported as 1 to 10 µM.

For `CC[C@]1(C)[C@@H](c2cccc(C#N)c2)N(c2ccc(Cl)cc2)C(=O)N1c1ccc(Cl)cc1` [Example 34-2, 3-((4R,5R)-1,3-bis(4-chlorophenyl)-5-ethyl-5-methyl-2-oxoimidazolidin-4-yl)benzonitrile], the IC50 [1] was 1 to 10 µM.

In the case of `N#Cc1cccc([C@@H]2N(c3ccc(Cl)cc3)C(=O)N(c3ccc(Cl)cc3)C23COC3)c1` [Example 30-2, (S)-3-(5,7-bis(4-chlorophenyl)-6-oxo-2-oxa-5,7-diazaspiro[3.4]octan-8-yl)benzonitrile], the IC50 [1] is reported as < 1 µM.

`C[C@@]1(C(F)(F)F)[C@H](c2cccc(OC(F)(F)F)c2)N(c2ccc(C#N)cc2)C(=O)N1c1ccc(C#N)cc1` [Example 39-1, 4,4′-((4S,5S)-4-methyl-2-oxo-5-(3-(trifluoromethoxy)phenyl)-4-(trifluoromethyl)imidazolidine-1,3-diyl)dibenzonitrile] was tested, and the IC50 [1] was < 1 µM.

With `N#Cc1ccc(N2C(=O)N(c3ccc(Cl)cc3)[C@H](c3cccc(OC(F)(F)F)c3)C23COC3)cc1` [Example 46-1, (R)-4-(7-(4-chlorophenyl)-6-oxo-8-(3-(trifluoromethoxy)phenyl)-2-oxa-5,7-diazaspiro[3.4]octan-5-yl)benzonitrile] the IC50 [1] was < 1 µM.

`C[C@H]1[C@H](c2cccc(OC(F)(F)F)c2)N(c2ccc(Br)cc2)C(=O)N1c1ccc(Br)cc1` [Example 11-2, (4S,5S)-1,3-bis(4-bromophenyl)-4-methyl-5-(3-(trifluoromethoxy)phenyl)imidazolidin-2-one] was tested, and the IC50 [1] was < 1 µM.

`CC[C@@]1(C)[C@@H](c2cccc(C#N)c2)N(c2ccc(Cl)cc2)C(=O)N1c1ccc(Cl)cc1` [Example 34-3, 3-((4R,5S)-1,3-bis(4-chlorophenyl)-5-ethyl-5-methyl-2-oxoimidazolidin-4-yl)benzonitrile] was tested, and the IC50 [1] was < 1 µM.

For `Cc1ccc(N2C(=O)N(c3ccc(C#N)cc3)C(O)(c3cccc(C#N)c3)C23COC3)cc1` (centres unmarked) [Example 308, 3-(7-(4-cyanophenyl)-8-hydroxy-6-oxo-5-(p-tolyl)-2-oxa-5,7-diazaspiro[3.4]octan-8-yl)benzonitrile], the IC50 [2, 3] was < 1 µM.

With `CCc1cccc(C2(O)C(C)N(c3ccc(Br)cc3)C(=O)N2c2ccc(Br)cc2)c1` (centres unmarked) [Compound 68, 1,3-bis(4-bromophenyl)-4-(3-ethylphenyl)-4-hydroxy-5-methylimidazolidin-2-one] the IC50 [2] was < 1 µM.

With `CC[C@@H]1N(c2ccc(F)cc2)C(=O)N(c2ccc(F)cc2)C1(O)c1cccc(C#N)c1` (stereo partly drawn) [Compound 123-1, 3-((5S)-5-ethyl-1,3-bis(4-fluorophenyl)-4-hydroxy-2-oxoimidazolidin-4-yl)benzonitrile] the IC50 [2] was 1 to 10 µM.

`CC1N(c2ccc(Br)cc2)C(=O)N(c2ccc(Br)cc2)C1(O)c1cccc(Cl)c1` (centres unmarked) [Compound 73, 1,3-bis(4-bromophenyl)-4-(3-chlorophenyl)-4-hydroxy-5-methylimidazolidin-2-one] was tested, and the IC50 [2] was < 1 µM.

Work on `CCCc1c(-c2cccc(C(F)(F)F)c2)n(-c2ccc(Cl)cc2)c(=O)n1-c1ccc(Cl)cc1` [Compound 243, 1,3-bis(4-chlorophenyl)-4-propyl-5-(3-(trifluoromethyl)phenyl)-1,3-dihydro-2H-imidazol-2-one] yielded an IC50 [2] of 1 to 10 µM.

With `COC[C@]1(C)N(c2ccc(Cl)cc2)C(=O)N(c2ccc(Cl)cc2)C1(O)c1cccc(C#N)c1` (single isomer, unassigned) [Compound 297-2] the IC50 [2, 3] was < 1 µM.

With `CC[C@H]1N(c2ccc(Br)cc2)C(=O)N(c2ccc(Br)cc2)C1(O)c1ccccc1` (some centres unmarked) [Example 25-2] the IC50 [2] was < 1 µM.

For `O=C1N(c2ccc(Br)cc2)C(=O)C(O)(c2cc3ccccc3o2)N1c1ccc(Br)cc1` (centres unmarked) [Example 213, 5-(benzofuran-2-yl)-1,3-bis(4-bromophenyl)-5-hydroxyimidazolidine-2,4-dione], the IC50 [2] was > 50 µM.

`C[C@H]1N(c2ccccc2)C(=O)N(c2ccccc2)C1(O)c1cccc(OC(F)(F)F)c1` (stereo partly drawn) [Example 230-2, (5R)-4-hydroxy-5-methyl-1,3-diphenyl-4-(3-(trifluoromethoxy)phenyl)imidazolidin-2-one] showed an IC50 [2] of 1 to 10 µM.

Work on `COc1ccc(C2(O)C(=O)N(c3ccc(Br)cc3)C(=O)N2c2ccc(Br)cc2)cn1` (centres unmarked) [Example 202, 1,3-bis(4-bromophenyl)-5-hydroxy-5-(6-methoxypyridin-3-yl)imidazolidine-2,4-dione] yielded an IC50 [2] of 10 to 50 µM.

In the case of `O=c1n(-c2ccc(Br)cc2)cc(-c2ccc[nH]2)n1-c1ccc(Br)cc1` [Compound 256, 1,3-bis(4-bromophenyl)-4-(1H-pyrrol-2-yl)-1,3-dihydro-2H-imidazol-2-one], the IC50 [2] is reported as > 50 µM.

With `COc1cccc(C2(O)CN(c3ccc(Br)cc3)C(=O)N2c2ccc(Br)cc2)c1` (centres unmarked) [Example 30, 1,3-bis(4-bromophenyl)-4-hydroxy-4-(3-methoxyphenyl)imidazolidin-2-one] the IC50 [2] was 1 to 10 µM.

`CN(C)c1cccc(C2(O)CN(c3ccc(Br)cc3)C(=O)N2c2ccc(Br)cc2)c1` (centres unmarked) [Compound 125, 1,3-bis(4-bromophenyl)-4-(3-(dimethylamino)phenyl)-4-hydroxyimidazolidin-2-one] was tested, and the IC50 [2] was > 50 µM.

For `Cc1ccc(N2C(=O)N(c3ccc(C)cc3)C(O)(c3cccc(OC(F)F)c3)C23COC3)cc1` (centres unmarked) [Compound 290, 8-(3-(difluoromethoxy)phenyl)-8-hydroxy-5,7-di-p-tolyl-2-oxa-5,7-diazaspiro[3.4]octan-6-one], the IC50 [2, 3] was < 1 µM.

For `CC1(C(F)(F)F)N(c2ccc(Cl)cc2)C(=O)N(c2ccc(Cl)cc2)C1(O)c1cccc(OC(F)(F)F)c1` (centres unmarked) [Example 159, 1,3-bis(4-chlorophenyl)-4-hydroxy-5-methyl-4-(3-(trifluoromethoxy)phenyl)-5-(trifluoromethyl)imidazolidin-2-one], the IC50 [2] was < 1 µM.

For `Cc1cccc(N2C(=O)N(c3cccc(C)c3)C(O)(c3cccc(OC(F)(F)F)c3)C2C)c1` (centres unmarked) [Compound 107, 4-hydroxy-5-methyl-1,3-di-m-tolyl-4-(3-(trifluoromethoxy)phenyl)imidazolidin-2-one], the IC50 [2] was < 1 µM.

For `Cc1ccc(N2C(=O)N(c3ccc(Cl)cc3)C(O)(c3cccc(OC(F)(F)F)c3)C23COC3)cc1` (centres unmarked) [Example 311, 7-(4-chlorophenyl)-8-hydroxy-5-(p-tolyl)-8-(3-(trifluoromethoxy)phenyl)-2-oxa-5,7-diazaspiro[3.4]octan-6-one], the IC50 [2, 3] was < 1 µM.

In the case of `Cc1c(-c2cccc(C#N)c2)n(-c2ccc(Cl)cc2)c(=O)n1-c1ccc(Cl)cc1` [Example 3], the IC50 [2] is reported as < 1 µM.

With `N#Cc1ccc(N2C(=O)N(c3ccc(Br)cc3)C(O)(c3cccc(OC(F)(F)F)c3)C23CCCC3)cc1` (centres unmarked) [Example 325, 4-(3-(4-bromophenyl)-4-hydroxy-2-oxo-4-(3-(trifluoromethoxy)phenyl)-1,3-diazaspiro[4.4]nonan-1-yl)benzonitrile] the IC50 [2, 3] was < 1 µM.
